Data: publication PMC8147984, “Effects of Sponge-Derived Alkaloids on Activities of the Bacterial α-D-Galactosidase and Human Cancer Cell α-N-Acetylgalactosaminidase” (Biomedicines, 2021)

Tests used:
[1] = target: T1, α-D-galactosidase (α-PsGal) (Pseudoalteromonas sp. KMM 701, UniProt Q19AX0); test: Inhibitory potency on recombinant α-PsGal (residual activity); format: biochemical; conditions: for Residual activity v/v0 (%) of the α-PsGal: preincubated 30 min, 20 °C, pH 7.0
T1 sequence (Q19AX0 1-710): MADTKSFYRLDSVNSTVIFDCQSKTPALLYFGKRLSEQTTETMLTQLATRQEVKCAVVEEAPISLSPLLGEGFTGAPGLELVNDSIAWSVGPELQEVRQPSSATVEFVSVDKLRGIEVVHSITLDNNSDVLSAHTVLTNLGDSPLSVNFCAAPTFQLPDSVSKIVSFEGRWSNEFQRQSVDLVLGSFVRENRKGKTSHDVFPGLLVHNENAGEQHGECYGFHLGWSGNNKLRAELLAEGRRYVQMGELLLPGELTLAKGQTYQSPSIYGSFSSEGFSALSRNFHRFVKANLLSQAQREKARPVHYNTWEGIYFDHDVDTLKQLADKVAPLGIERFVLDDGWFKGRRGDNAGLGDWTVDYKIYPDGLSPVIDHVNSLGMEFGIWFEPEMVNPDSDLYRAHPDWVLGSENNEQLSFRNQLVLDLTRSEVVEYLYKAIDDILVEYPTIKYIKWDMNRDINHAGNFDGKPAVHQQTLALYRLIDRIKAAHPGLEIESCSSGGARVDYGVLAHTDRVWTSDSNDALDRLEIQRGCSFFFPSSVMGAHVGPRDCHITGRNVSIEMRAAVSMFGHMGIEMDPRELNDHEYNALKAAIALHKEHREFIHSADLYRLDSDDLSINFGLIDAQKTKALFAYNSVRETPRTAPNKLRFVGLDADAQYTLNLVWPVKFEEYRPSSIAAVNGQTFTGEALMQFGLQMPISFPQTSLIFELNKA
Protocol: The recombinant wild-type α-D-galactosidase (α-PsGal) was produced as described earlier. The plasmid DNA pET-40b(+) containing insertion of the gene from the marine bacterium Pseudoalteromonas sp. KMM 701 encoding α-PsGal was transformed in the Escherichia coli strain Rosetta (DE3). Heterological expression was carried out at optimal conditions as described earlier. Purification of the recombinant […] was performed, according to described procedures. The purification quality was controlled by 12% Laemmli-SDS-PAGE-electrophoresis.
(§1) The activity of α-PsGal and α-NaGalase were determined by increasing the amount of p-nithrophenol (pNP). To assay the α-NaGalase activity 0.05 mL of cell extract and 0.1 mL of substrate pNPNA-α-Gal (8.8 mM) in 0.05 M sodium citrate buffer, pH 5.0 were placed in cells of 96-well plate and incubated at 37 °C for 30 min. The mixtures containing 0.05 mL of an enzyme solution and 0.1 mL of a substrate solution (3.3 mM) in 0.05 M sodium phosphate buffer (pH 7.0) were incubated at 20 °C during 5 min for determination of α-PsGal standard activity. The reactions were stopped by the addition of 0.15 mL of 1 M Na2CO3 solution.
Absorbance was measured at 400 nm. Results were read with a computer program Gen5 and treated with ExCel computer program. The unit of standard activity (U) was defined as the amount of the enzyme catalyzing the formation of 1 µmol of p-nitrophenol (ε400 = 18,300 M^−1 cm^−1) per 1 min under the conditions indicated. Specific activity (A) was calculated as the enzyme activity (U) per 1 mg of protein. All calculations were based on reactions with consumption of 10% of the chromogenic substrate. The protein concentrations were estimated by the Bradford method with BSA as a standard. Residual activity (%) was calculated with formula: Residual activity (%) = v/v0 ×100, where v is the initial reaction rate of enzymes under the action of an inhibitor or other factors, v0 is the initial reaction rate of enzymes in the absence of the influence of any factors. Buffer solutions of α-PsGal (0.1 U/mL) and α-NaGalase (0.01 U/mL) were used in the further experiments.
In the control sample, 5 μL of water or 2 μL of EtOH were added to 25 μL of enzyme solution. The enzyme reaction was initiated by adding 120 μL of the substrate pNP-α-Gal (3.3 mM) for α-PsGal or pNPNA-α-Gal (8.8 mM) for α-NaGalase in the respective buffer solutions. After 10 min for α-PsGal or 60 min for α-NaGalase the reaction was stopped by adding 150 μL of 1 M Na2CO3. The amount of pNP was quantified by spectrophotometric detection at 400 nm. Results were evaluated as the percent of residual activity as described above.

DLD-1 cells = test: MTS cytotoxic activity assay on DLD-1 cells; format: cell-based, human; conditions: for cytotoxicity against DLD-1 cells: dose up to 20 μM
Protocol: DLD-1 cells (8 × 10^3/200 μL) were seeded in 96-well plates for 24 h at 37 °C in a 5% CO2 incubator. The cells were treated with compounds 1–9 at concentrations ranging from 0 to 20 μM for an additional 24 h. Subsequently, cells were incubated with 15 μL MTS (3-(4,5-dimethylthiazol-2-yl)-5-(3-carboxymethoxyphenyl)-2-(4-sulfophenyl)-2H-tetrazolium) reagent for 3 h, and the absorbance in each well was measured at 490/630 nm using a microplate reader “Power Wave XS” (Bio Tek, Winooski, VT, USA). All the experiments were repeated three times, and the mean absorbance values were calculated. The results are expressed in absorbance by the compound’s treatment compared to the non-treated cells (control 1) and the compounds in medium (control 2). All the experiments were made in triplicate.

[2] = system: α-NaGalase in human colorectal adenocarcinoma cell line DLD-1; test: Residual α-NaGalase activity (expression) in lysate of DLD-1 cells treated with alkaloids; format: cell-based; conditions: DLD-1 cells treated with 5 μM for 24 h
Protocol: DLD-1cells (5.0 × 10^5) were seeded in […] for 24 h at 37 °C in a 5% CO2 incubator. Then the cells were treated with compounds 1–9 at concentrations ranging from 0 to 20 μM for an additional 24 h. Then the cells were harvested using 0.02% EDTA, after this 3 mL of cold 15 mM Tris–HCl (pH 7.0) was added.
Every 3–4 days cells were rinsed in phosphate buffered PBS, detached from the tissue culture flask by 1× trypsin/EDTA solution, harvested with RPMI-1640 medium and centrifuge at 500 rpm for 3 min. The culture media was discarded and cells pellet was resuspended in EDTA/Tris solution and frozen at −80 °C.
Frozen lysates of cancer cells in the 15 mM Tris buffer, pH 7.0 containing 0.02% EDTA, defrosted and sonicated 10 times during 1 min with a break of 1 min. To remove the cellular detritus, the cell homogenate was centrifuged at 4 °C, 10,000 rpm, 30 min. The supernatant proteins were precipitated with 35% ammonium sulfate, kept during four hours at 4 °C to form a pellet. The protein pellet was collected by centrifugation (4 °C, 10,000 rpm, 30 min) and dissolved in 0.05 M sodium citrate buffer, pH 5.0. The supernatant proteins were precipitated with 75% ammonium sulfate, kept overnight at 4 °C to form a pellet. The protein pellet was collected by centrifugation (4 °C, 10,000 rev/min, 30 min) and dissolved in 0.05 M sodium citrate buffer, pH 5.0. Both extracts were dialyzed against the same buffer, centrifuged to separate the insoluble precipitate. α-NaGalase activity was tested in both extracts and was found only in the protein fraction precipitated with 75% ammonium sulfate. This supernatant was used in further work as partly purified enzyme. The purification quality was controlled by 12% Laemmli-SDS-PAGE-electrophoresis.
as §1, with “The reactions were stopped by the addition of 0.15 mL of 1 M Na2CO3 solution.” left out
Absorbance was measured at 400 nm. Results were read with a computer program Gen5 and treated with ExCel computer program. […] Specific activity (A) was calculated as the enzyme activity (U) per 1 mg of protein. […] Residual activity (%) was calculated with formula: Residual activity (%) = v/v0 ×100, where v is the initial reaction rate of enzymes under the action of an inhibitor or other factors, v0 is the initial reaction rate of enzymes in the absence of the influence of any factors. […]

[3] = target: T1, α-D-galactosidase (α-PsGal); test: Irreversibility of α-PsGal inhibition (dialysis experiment); format: biochemical; conditions: dialysis against buffer for 60 h at 4 °C; activity did not recover
Protocol: To determine the reversibility of the α-PsGal activity inhibition by alkaloids 2, 3, 8, and 9 15 µL of 0.625 mM aqueous solution of the compounds 2 and 3 or 6 µL of 2.5 mM ethanol solution of the compound 8 and 9 were added to 75 µL of the enzyme solution in 0.05 M sodium phosphate buffer (pH 7.0). After 30 min of the mixture incubation the aliquot of 30 µL was taken and 120 µL of 3.3 mM pNPG solution were added to initiate the reaction; the reaction was stopped by addition of 150 µL of 1M Na2CO3. The α-D-galactosidase activity was determined, as described above. The remaining reaction mixture was dialyzed against 1 L of 0.02 M sodium phosphate buffer (pH 7.0) for 60 h at 4 °C. The buffer was changed 3 times during the dialysis. The enzyme activity was determined, as described above. A sample of α-PsGal treated with H2O or EtOH in the absence of the inhibitor (75 µL of the enzyme solution and 15 µL of H2O or 6 µL of EtOH, respectively) was dialyzed and used as a control for determination of the initial activity. The experiment was carried out in two replicates. The residual activity was calculated as described above.

[4] = target: T1, α-D-galactosidase (α-PsGal); test: Kinetic studies of α-PsGal inactivation; format: biochemical; conditions: pH 7.0, 20 °C; for Ki / kinact: Hill equation fit; for Ki: read-out: Ki, equilibrium inhibition constant; for kinact: read-out: kinact, inactivation rate constant (converted)
Protocol: The kinetic parameters Ki and kinact were determined by classic methods. The inactivation of α-PsGal was monitored by incubation of the enzyme with different concentrations of alkaloids in […] sodium phosphate buffer, pH 7.0, at 20 °C in total volume of 30 µL (25 µL and 5 µL of α-PsGal and alkaloids, respectively), which were placed in cells of 96 cells plate. After preincubation of enzyme-inhibitor mixture for 0.5, 5, 10, 15, 20, 25, or 30 min […] the fraction of remaining enzyme activity was measured as a function of time by addition to the inactivation mixture 120 µL of a solution of pNP-α-Gal (3.3 mM). The pseudo-first-order rate constant of inactivation (kobs) was determined for each inactivator concentration as the slope of the v/v0 dependence on the incubation time in semilogarithmic coordinates. The Excel software was used for these calculations. The second order rate constants for the inactivation process were determined by fitting the dependences of the kobs values on the concentration of the inactivators to the Hill or Michaelis–Menten equations. An analysis of the graphs and the choice of models for calculation of inhibition constants (Ki, mM) and inactivation rate constants (kinact, min^–1) were performed with the Origin computer software.

Row | SMILES | inhibitory activity against α-PsGal (in words) [1] | Residual activity v/v0 (%) of the α-PsGal ([1]; compound concentration 1.67 mM) | expression of the enzyme α-NaGalase (residual activity of lysate cell α-NaGalase, control 100%) [2] | irreversibility of α-PsGal inhibition [3] | n, Hill's coefficient of cooperativity [4] | Ki [4] | kinact [4] | Residual activity v/v0 (%) of the α-PsGal ([1]; compound concentration 1.48 mM) | also measured
1 | COc1cc2c3c(cc[n+](C)c3c1[O-])NC(=O)C2=O [Compound 4, aaptanone] | no notable activity | 100 ^1% | – | – | – | – | – | – | –
2 | COc1cc2ccnc3c2c(c1O)N(C)C=C3 [Compound 2, isoaaptamine] | – | 0 ^1% | 64% | irreversibly inactivate | 2.17 | 2.7 ± 0.42 µM | 0.002 s⁻¹ | – | cytotoxicity against DLD-1 cells (DLD-1 cells; 24 h): weakly cytotoxic; decrease in cell viability (DLD-1 cells; DLD-1 cells, 24 h, at 20 μM): 20%; n, Hill's coefficient of cooperativity ([4]; listed as isoaaptamine (2)): 2.17 ± 0.55
3 | CN1CCc2c[nH]c3c2C1=CC(=O)C3=O [Compound 6, damirone B] | no notable activity | – | 52% | – | – | – | – | 87 ^2% | –
4 | COc1cc2ccnc3c2c(c1OC)NC=C3 [Compound 1, aaptamine] | no notable activity | 79 ^1% | – | – | – | – | – | – | cytotoxicity against DLD-1 cells (DLD-1 cells; 24 h): non-cytotoxic
5 | Cn1cc2c3c1C(=O)C(N/C=C/c1ccc(O)cc1)=CC3=[N+](C)CC2 [Compound 8, makaluvamine G] | low inhibitory activity | – | – | irreversibly inactivate | 2.5 | 411 ± 86 µM | 0.00132 s⁻¹ | 28 ^2% | n, Hill's coefficient of cooperativity ([4]; listed as makaluvamine G (8)): 2.5 ± 0.97
6 | COc1cc2ccnc3c2c(c1O)NC=C3 [Compound 3, 9-demethylaaptamine] | – | 0 ^1% | 57% | irreversibly inactivate | 0.84 | 300 ± 77 µM | 0.00153 s⁻¹ | – | IC50 (DLD-1 cells; Homo sapiens, DLD-1, 24 h, read-out: concentration that caused a 50% reduction in cell viability (IC50) of DLD-1 cells): 17 ± 0.2 µM; n, Hill's coefficient of cooperativity ([4]; listed as 9-demethylaaptamine(3)): 0.84 ± 0.12
7 | CNCCc1cn(C)c2c1C(=O)c1c(-c3ccc(O)cc3)c[nH]c1C2=O [Compound 9, zyzzyanone A] | low inhibitory activity | – | – | irreversibly inactivate | 4.1 | 105 ± 9 µM | 0.000617 s⁻¹ | 0 ^2% | n, Hill's coefficient of cooperativity ([4]; listed as zyzzyanone A (9)): 4.10 ± 1.42
8 | CN1CCc2cn(C)c3c2C1=CC(=O)C3=O [Compound 5, damirone A] | no notable activity | – | – | – | – | – | – | 87 ^2% | –
9 | Cn1cc2c3c1C(=O)C(N)=CC3=[N+](C)CC2 [Compound 7, makaluvamine H] | no notable activity | – | 50% | – | – | – | – | 67 ^2% | –
